From ChEMBL document CHEMBL5365490, “Enhanced tumor specific drug release by hypoxia sensitive dual-prodrugs based on 2-nitroimidazole” (Bioorg Med Chem Lett, 2023) come the findings set out here.

Series [1] in a line: Chemical stability of compound in PBS at pH 7.4 assessed as remaining parent compound incubated for 6 hrs by LC/MS analysis. The series is classed as physicochemical. The following applies: buffer, pH 7.4, 6 h.
Series [2] in a line: Stability of compound in human MIA Paca-2 cells homogenates assessed as remaining parent compound incubated for 6 hrs by LC/MS analysis. The series is classed as ADME, cell-based. Conditions: mia paca-2, 6 h.
Series [3] in a line: Chemical stability of compound in PBS at pH 7.4 assessed as remaining parent compound incubated for 24 hrs by LC/MS analysis. Format: physicochemical. The following applies: buffer, pH 7.4, 24 h.
Series [4] in a line: Stability of compound in human MIA Paca-2 cells homogenates assessed as remaining parent compound incubated for 24 hrs by LC/MS analysis. Format: ADME, cell-based. The following applies: mia paca-2, 24 h.
Series [5] deals with MIA PaCa-2. In words: Antiproliferative activity against human MIA-PaCa-2 cells assessed as reduction in cell viability > 1 uM measured for 72 hrs under hypoxia condition by MTT assay. Format: functional, cell-based. Background: Formazan colour is commonly taken as a measure of viable cells.
The test system of series [6] is MIA PaCa-2. Description: Antiproliferative activity against human MIA-PaCa-2 cells assessed as reduction in cell viability > 0.1 uM measured for 72 hrs under hypoxia condition by MTT assay. Format: functional, cell-based.
In series [7] the test system is MIA PaCa-2. Description: Antiproliferative activity against human MIA-PaCa-2 cell assessed as inhibition of cell growth > 0.1 uM measured for 72 hrs under normoxia condition by MTT assay. The series is classed as functional, cell-based.
Series [8] in a line: Half life in PBS buffer at pH 7.4 measured upto 72 hrs by LC/MS analysis. The series is classed as physicochemical.
Series [9] can be described thus: Chemical stability of compound in PBS at pH 7.4 assessed as remaining parent compound after 1 hrs of incubation by LC/MS analysis. Format: physicochemical. The following applies: buffer, pH 7.4, 1 h.
The nature of series [10]: Stability of compound in human MIA Paca-2 cells homogenates assessed as drug degradation incubated for 6 hrs by LC/MS analysis. The following applies: MIA PaCa-2 cell homogenates, read-out: Drug degradation. The series is classed as ADME, cell-based.
Series [11] in a line: Drug metabolism in human MIA PaCa-2 cells homogenates assessed as gemcitabine formation incubated for 24 hrs by LC/MS analysis. Format: ADME, cell-based. Conditions: mia paca-2, 24 h.
The nature of series [12]: Drug metabolism in human MIA PaCa-2 cells homogenates assessed as (S)-2-(2,3-dichloro-4H-thieno[3,2-b]pyrrole-5-carboxamido)-3-(2-nitro-1H-imidazol-1-yl)propanoic acid formation incubated for 24 hrs by LC/MS analysis. The following applies: mia paca-2, 24 h. The series is classed as ADME, cell-based.

Active and inactive are the calls of the source.

For `O=C(Nc1ccn([C@@H]2O[C@H](CO)[C@@H](O)C2(F)F)c(=O)n1)OCc1ccc(NC(=O)[C@@H](Cn2ccnc2[N+](=O)[O-])NC(=O)c2cc3sc(Cl)c(Cl)c3[nH]2)cc1`, the Stability entry in [1], in series [2], in [3] and in series [4] was “Stable” throughout. For the same compound, the result in the series on MIA PaCa-2 [5] was Active.

With `Nc1ccn([C@@H]2O[C@H](CO)[C@@H](O)C2(F)F)c(=O)n1`, the result in the series with MIA PaCa-2 [6] and in the series on MIA PaCa-2 [7] was Active.

Broadly, the half-life is the time needed for the level to fall by half in the phase considered. Read a low half-life as fast loss. As to `Nc1nccn1C[C@@H](NC(=O)c1cc2sc(Cl)c(Cl)c2[nH]1)C(=O)Nc1ccc(COC(=O)Nc2ccn([C@@H]3O[C@H](CO)[C@@H](O)C3(F)F)c(=O)n2)cc1`, in series [8], the half-life was 40 h.

Consider `Nc1ccn([C@@H]2O[C@H](COC(=O)[C@H](Cn3ccnc3[N+](=O)[O-])NC(=O)c3cc4sc(Cl)c(Cl)c4[nH]3)[C@@H](O)C2(F)F)c(=O)n1`, for which the Stability result in series [9] is reported as “Unstable”. Besides, the metabolised at 6 h in [10] was greater than 50%. Besides, the Drug metabolism entry in series [11] and in [12] was “Metabolite_Detected” in each case.
